# Test results from article PMC10663516 (Scientific Reports, 2023).
# How the values were obtained:
# [1] = mouse, in vivo, po, 25 mg/kg
# HT = assay: Cell viability, ATPlite; assay type: cell-based; conditions: Homo sapiens; HT (GCB-DLBCL), 72 h; read-out: Max response (GI %)
# Procedure: (§1) The potency of TL-895 effects on cell viability was further examined in vitro in a panel of diffuse large B-cell lymphoma (DLBCL) and MCL cell lines, comprising ten germinal B-cell like subtype (GCB)-DLBCL cell lines, six activated B-cell like (ABC)-DLBCL cell lines, and six MCL cell lines (Horizon Discovery Inc, Cambridge MA, USA). Cells were seeded into 384-well plates (500 cells/well) and incubated (37 °C for 24 h) before treatment with varying concentrations of TL-895 for 72 h. ATP levels were analyzed using the ATPlite Luminescence Assay System (Perkin Elmer, UK). Growth inhibition and maximum response were calculated using the Chalice Analyzer (Horizon Discovery Inc).
# Jeko-1 = assay: Cell viability, ATPlite; assay type: cell-based; conditions: Homo sapiens; Jeko-1 (MCL), 72 h; read-out: Max response (GI %)
# Procedure: as §1
# SU-DHL-5-epst = assay: Cell viability, ATPlite; assay type: cell-based; conditions: Homo sapiens; SU-DHL-5-epst (GCB-DLBCL), 72 h; read-out: Max response (GI %)
# Procedure: as §1
# Pfeiffer = assay: Cell viability, ATPlite; assay type: cell-based; conditions: Homo sapiens, Pfeiffer (GCB-DLBCL), 72 h
# Procedure: as §1
# OCI-Ly18 = assay: Cell viability, ATPlite; assay type: cell-based; conditions: Homo sapiens, OCI-Ly18 (GCB-DLBCL), 72 h
# Procedure: as §1
# HU-DHL-1-epst = assay: Cell viability, ATPlite; assay type: cell-based; conditions: Homo sapiens, HU-DHL-1-epst (GCB-DLBCL), 72 h
# Procedure: as §1
# SU-DHL-4-epst = assay: Cell viability, ATPlite; assay type: cell-based; conditions: Homo sapiens, SU-DHL-4-epst (GCB-DLBCL), 72 h
# Procedure: as §1
# GRANTA-519 = assay: Cell viability, ATPlite; assay type: cell-based; conditions: Homo sapiens; GRANTA-519 (MCL), 72 h; read-out: Max response (GI %)
# Procedure: as §1
# DOHH-2 = assay: Cell viability, ATPlite; assay type: cell-based; conditions: Homo sapiens, DOHH-2 (GCB-DLBCL), 72 h
# Procedure: as §1
# U-2932 = assay: Cell viability, ATPlite; assay type: cell-based; conditions: Homo sapiens, U2932, U-2932 (ABC-DLBCL), 72 h
# Procedure: as §1
# Toledo = assay: Cell viability, ATPlite; assay type: cell-based; conditions: Homo sapiens, Toledo (GCB-DLBCL), 72 h
# Procedure: as §1
# REC-1 = assay: Cell viability, ATPlite; assay type: cell-based; conditions: Homo sapiens, Rec1, REC-1 (MCL), 72 h
# Procedure: as §1
# JVM-2 = assay: Cell viability, ATPlite; assay type: cell-based; conditions: Homo sapiens, JVM-2 (MCL), 72 h
# Procedure: as §1
# Mino = assay: Cell viability, ATPlite; assay type: cell-based; conditions: Homo sapiens, Mino (MCL), 72 h
# Procedure: as §1
# OCI-Ly19 = assay: Cell viability, ATPlite; assay type: cell-based; conditions: Homo sapiens; OCI-Ly19 (GCB-DLBCL), 72 h; read-out: Max response (GI %)
# Procedure: as §1
# SU-DHL-8-epst = assay: Cell viability, ATPlite; assay type: cell-based; conditions: Homo sapiens, SU-DHL-8-epst (ABC-DLBCL), 72 h
# Procedure: as §1
# DB = assay: Cell viability, ATPlite; assay type: cell-based; conditions: Homo sapiens; DB (GCB-DLBCL), 72 h; read-out: Max response (GI %)
# Procedure: as §1
# Maver-1 = assay: Cell viability, ATPlite; assay type: cell-based; conditions: Homo sapiens, Maver1, Maver-1 (MCL), 72 h
# Procedure: as §1
# [2] = tested on: primary human hepatocytes; assay: Cytotoxicity by ATP content (CellTiter-Glo); assay type: cell-based; conditions: hepatocyte EC50 at 24 h
# Procedure: (§2) HepG2 cells (human hepatocellular carcinoma [epithelial]) and primary human hepatocytes were cultured in DMEM/F-12 medium supplemented with antibiotics, sodium pyruvate, insulin and 10% fetal calf serum. During the testing steps, the medium was replaced by serum-free media containing bovine serum albumin (BSA) and dexamethasone. All the cultures are incubated at 37 °C in a humidified chamber containing 5% CO2. […] HepG2 and primary hepatocytes were cultured in 96-well tissue culture plates either for luminescence (2E4/well in 100 µL) or pre-coated with collagen I (3.5E4/well in 100 µL, respectively).
# (§3) For the cytotoxicity data, the % values relative (%RV) to the vehicle controls were calculated for each dose level. […] The overall EC50s were the averages of the values obtained from each experiment (PRISM® GraphPad™ Software, Boston, MA).
# [3] = Cytotoxicity by ATP content (CellTiter-Glo); assay type: cell-based, human; conditions: primary human hepatocytes, 24 h
# Procedure: as §2, §3
# GCB-DLBCL cell lines = assay: Cell viability, ATPlite, GCB-DLBCL panel; assay type: cell-based; conditions: Homo sapiens; all GCB-DLBCL cell lines, 72 h; read-out: IC50s in GCB-DLBCL cell lines
# Procedure: as §1
structure (smiles),measurement,setting,value
C=CC(=O)N1CCC(F)(CNc2ncnc(N)c2-c2ccc(Oc3ccccc3)cc2)CC1 [TL-895],Exposure relative to that needed for 90–95% target occupancy,[1],8.5 fold
same,Emax,HT,17%
same,Emax,Jeko-1,42%
same,Emax,SU-DHL-5-epst,42%
same,GI50,Pfeiffer,19.6 µM
same,IC50,Pfeiffer,21 µM
same,Emax,Pfeiffer; read-out: Max response (GI %),99%
same,GI50,OCI-Ly18,18.6 µM
same,IC50,OCI-Ly18,22.3 µM
same,Emax,OCI-Ly18; read-out: Max response (GI %),68%
same,GI50,HU-DHL-1-epst,20.8 µM
same,IC50,HU-DHL-1-epst,24.9 µM
same,Emax,HU-DHL-1-epst; read-out: Max response (GI %),73%
same,GI50,SU-DHL-4-epst,10.6 µM
same,IC50,SU-DHL-4-epst,11.9 µM
same,Emax,SU-DHL-4-epst; read-out: Max response (GI %),94%
same,Emax,GRANTA-519,50%
same,GI50,DOHH-2,9.39 µM
same,IC50,DOHH-2,11.4 µM
same,Emax,DOHH-2; read-out: Max response (GI %),130%
same,GI50,U-2932,1.97 µM
same,IC50,U-2932,6.6 µM
same,Emax,U-2932; read-out: Max response (GI %),105%
same,GI50,Toledo,3.84 µM
same,IC50,Toledo,5.18 µM
same,Emax,Toledo; read-out: Max response (GI %),195%
same,GI50,REC-1,4.26 µM
same,IC50,REC-1,13 µM
same,Emax,REC-1; read-out: Max response (GI %),83%
same,GI50,JVM-2,6.81 µM
same,IC50,JVM-2,17.9 µM
same,Emax,JVM-2; read-out: Max response (GI %),135%
same,GI50,Mino,5.58 µM
same,IC50,Mino,14 µM
same,Emax,Mino; read-out: Max response (GI %),88%
same,Emax,OCI-Ly19,36%
same,GI50,SU-DHL-8-epst,23 µM
same,IC50,SU-DHL-8-epst,25.7 µM
same,Emax,SU-DHL-8-epst; read-out: Max response (GI %),62%
same,Emax,DB,25%
same,GI50,Maver-1,27.5 µM
same,Emax,Maver-1; read-out: Max response (GI %),53%
same,Cytotoxicity EC50 in primary human hepatocytes relative to IC50 in primary CLL blasts,[2],32 fold
same,EC50 at 24 h,[3],6.4 µM
same,IC50,GCB-DLBCL cell lines,> 5 µM
